The source of these data is patent US20230287510A1, “COMPOSITIONS, PANELS, AND METHODS FOR CHARACTERIZING CHRONIC LYMPHOCYTIC LEUKEMIA” (The Broad Institute, Inc., priority 2020, published 2023).

In this data set the test system is chronic lymphocytic leukemia (CLL) samples classified by expression subtype (Ec-i, EC-m1, EC-m2, EC-m3, EC-m4, EC-o, EC-u1, EC-u2). Briefly: Ex-vivo drug sensitivity (percent viability) of CLL samples compared between expression subtypes (ECs). As to Mean viability in the EC: test concentration or dose not given here. As to Mean viability in the other ECs: test concentration or dose not given here. The format is cell-based. From the text: An analysis was completed to determine whether the expression clusters (ECs) can be used to predict the resistance and sensitivity of different chronic lymphocytic leukemias to various drugs. […] The expression subtypes were then used with the drug sensitivity data to compare the percent […] of samples in each expression cluster to the percent viability of samples in all other expression clusters.

Regarding `CC1(C)CCC(c2ccc(Cl)cc2)=C(CN2CCN(c3ccc(C(=O)NS(=O)(=O)c4ccc(N[C@H](CCN5CCOCC5)CSc5ccccc5)c(S(=O)(=O)C(F)(F)F)c4)cc3)CC2)C1` [navitoclax], where the note is “all ECs other than EC-u1”, the “Mean viability in the other ECs” value stood at 0.82. Besides, under “expression cluster EC-u1”, the “Drug response associated with the EC” value was “Resistant” and the “Mean viability in the EC” value is 0.89.
On to `Cn1cnc2c(F)c(Nc3ccc(Br)cc3Cl)c(C(=O)NOCCO)cc21` [selumetinib], for which the “Mean viability in the other ECs” value turned out to be 0.92 (all ECs other than EC-i); 0.93 (all ECs other than EC-m3); 0.92 (all ECs other than EC-m4); 0.94 (all ECs other than EC-u1); 0.94 (all ECs other than EC-u2). Also, the “Drug response associated with the EC” value runs as follows: (expression cluster EC-i) “Resistant”; (expression cluster EC-m3) “Resistant”; (expression cluster EC-m4) “Resistant”; (expression cluster EC-u1) “Sensitive”; (expression cluster EC-u2) “Sensitive”. Further, the “Mean viability in the EC” value worked out at 0.97 (expression cluster EC-i); 0.97 (expression cluster EC-m3); 0.97 (expression cluster EC-m4); 0.91 (expression cluster EC-u1); 0.79 (expression cluster EC-u2).
On to `O=C(Cc1ccc(-c2ccc(OCCN3CCOCC3)cc2)cn1)NCc1ccccc1` [KX2-391], for which the “Mean viability in the other ECs” value (all ECs other than EC-u1) amounted to 0.91. Moreover, for the setting “expression cluster EC-u1”, the “Drug response associated with the EC” value is listed as “Sensitive” and the “Mean viability in the EC” value turned out to be 0.86.
For the compound `CN1CCN(CCOc2cc(OC3CCOCC3)c3c(Nc4c(Cl)ccc5c4OCO5)ncnc3c2)CC1` [saracatinib], the “Mean viability in the other ECs” value (all ECs other than EC-i) was determined as 1.07. Moreover, the “Mean viability in the EC” value (expression cluster EC-i) worked out at 1.13.
Turning to `COCCn1c2c([n+](Cc3cnccn3)c1C)C(=O)c1ccccc1C2=O` [YM155], the “Mean viability in the other ECs” value (all ECs other than EC-u1) is reported as 0.64. For the same compound, under “expression cluster EC-u1”, the “Drug response associated with the EC” value is “Sensitive” and the “Mean viability in the EC” value worked out at 0.53.
Regarding `CC[C@H](Nc1ncnc2nc[nH]c12)c1nc2cccc(F)c2c(=O)n1-c1ccccc1` [idelalisib], the “Mean viability in the other ECs” value is, setting by setting: (all ECs other than EC-m3) 0.93; (all ECs other than EC-m4) 0.93; (all ECs other than EC-u1) 0.96; (all ECs other than EC-u2) 0.95. Also, the “Drug response associated with the EC” value (expression cluster EC-m3) was “Resistant”, the “Drug response associated with the EC” value (expression cluster EC-m4) is given as “Resistant”, the “Drug response associated with the EC” value (expression cluster EC-u1) was “Sensitive” and the “Drug response associated with the EC” value (expression cluster EC-u2) is on record as “Sensitive”. The “Mean viability in the EC” value stood at 1.02 (expression cluster EC-m3), 0.99 (expression cluster EC-m4), 0.90 (expression cluster EC-u1) and 0.79 (expression cluster EC-u2).
For the compound `NC(=O)Nc1cc(-c2cccc(F)c2)sc1C(=O)N[C@H]1CCCNC1` [AZD7762], the “Mean viability in the other ECs” value (all ECs other than EC-m3) is given as 0.82, the “Mean viability in the other ECs” value (all ECs other than EC-m4) came out at 0.80, the “Mean viability in the other ECs” value (all ECs other than EC-u1) turned out to be 0.88 and the “Mean viability in the other ECs” value (all ECs other than EC-u2) amounted to 0.85. Besides, the “Drug response associated with the EC” value (expression cluster EC-m3) is recorded as “Resistant”, the “Drug response associated with the EC” value (expression cluster EC-m4) was “Resistant”, the “Drug response associated with the EC” value (expression cluster EC-u1) is listed as “Sensitive” and the “Drug response associated with the EC” value (expression cluster EC-u2) is “Sensitive”. Moreover, the “Mean viability in the EC” value by setting is: (expression cluster EC-m3) 0.95; (expression cluster EC-m4) 0.98; (expression cluster EC-u1) 0.74; (expression cluster EC-u2) 0.51.
Turning to `COc1cc(N2CCC(N3CCN(C)CC3)CC2)ccc1Nc1ncc(Cl)c(Nc2ccccc2S(=O)(=O)C(C)C)n1` [TAE684], the “Mean viability in the other ECs” value reads like this: (all ECs other than EC-m1) 1.01; (all ECs other than EC-m4) 1.01; (all ECs other than EC-u1) 1.03. Moreover, the “Drug response associated with the EC” value is listed as “Resistant” (expression cluster EC-m1), “Resistant” (expression cluster EC-m4) and “Sensitive” (expression cluster EC-u1). For the same compound, the “Mean viability in the EC” value is 1.07 (expression cluster EC-m1), 1.04 (expression cluster EC-m4) and 0.98 (expression cluster EC-u1).
In the case of `COc1cc2nc(-c3cc(F)ccc3O)nc(N[C@@H]3CNC[C@H]3C(C)(C)O)c2cc1OC` [CCT241533], the “Mean viability in the other ECs” value (all ECs other than EC-m1) was 1.06 and the “Mean viability in the other ECs” value (all ECs other than EC-m3) is on record as 1.06. Besides, the “Drug response associated with the EC” value (expression cluster EC-m1) is “Resistant” and the “Drug response associated with the EC” value (expression cluster EC-m3) is “Resistant”. The “Mean viability in the EC” value reads like this: (expression cluster EC-m1) 1.11; (expression cluster EC-m3) 1.09.
Take `COc1cc(Nc2ncc(F)c(Nc3ccc4c(n3)NC(=O)C(C)(C)O4)n2)cc(OC)c1OC` [tamatinib]: the “Mean viability in the other ECs” value (all ECs other than EC-i) came to 1.03, the “Mean viability in the other ECs” value (all ECs other than EC-m3) is on record as 1.04, the “Mean viability in the other ECs” value (all ECs other than EC-m4) is recorded as 1.03 and the “Mean viability in the other ECs” value (all ECs other than EC-u1) is on record as 1.06. Moreover, the “Drug response associated with the EC” value is given as “Resistant” (expression cluster EC-i), “Resistant” (expression cluster EC-m3), “Resistant” (expression cluster EC-m4) and “Sensitive” (expression cluster EC-u1). For the same compound, the “Mean viability in the EC” value (expression cluster EC-i) is 1.07, the “Mean viability in the EC” value (expression cluster EC-m3) amounted to 1.09, the “Mean viability in the EC” value (expression cluster EC-m4) was 1.09 and the “Mean viability in the EC” value (expression cluster EC-u1) came out at 1.00.
In the case of `C=CC(=O)Nc1cccc(Nc2nc(Nc3ccc(OCCOC)cc3)ncc2F)c1` [spebrutinib], the “Mean viability in the other ECs” value by setting is: (all ECs other than EC-m4) 0.95; (all ECs other than EC-u1) 0.98; (all ECs other than EC-u2) 0.96. Besides, the “Mean viability in the EC” value by setting is: (expression cluster EC-m4) 1.01; (expression cluster EC-u1) 0.92; (expression cluster EC-u2) 0.88.
In the case of dasatinib, the “Mean viability in the other ECs” value reads like this: (all ECs other than EC-m1) 0.73; (all ECs other than EC-m3) 0.72; (all ECs other than EC-m4) 0.70; (all ECs other than EC-u1) 0.79; (all ECs other than EC-u2) 0.75. For the same compound, the “Drug response associated with the EC” value is recorded as “Resistant” (expression cluster EC-m1); “Resistant” (expression cluster EC-m3); “Resistant” (expression cluster EC-m4); “Sensitive” (expression cluster EC-u1); “Sensitive” (expression cluster EC-u2). Also, the “Mean viability in the EC” value is reported as 0.90 (expression cluster EC-m1); 0.87 (expression cluster EC-m3); 0.89 (expression cluster EC-m4); 0.64 (expression cluster EC-u1); 0.46 (expression cluster EC-u2).
In the case of `CC(C)c1cc(C(=O)N2Cc3ccc(CN4CCN(C)CC4)cc3C2)c(O)cc1O` [AT13387], the “Mean viability in the other ECs” value came out at 0.72 (all ECs other than EC-m1); 0.72 (all ECs other than EC-m3); 0.70 (all ECs other than EC-m4); 0.75 (all ECs other than EC-u1); 0.74 (all ECs other than EC-u2). The “Drug response associated with the EC” value is “Resistant” (expression cluster EC-m1); “Resistant” (expression cluster EC-m3); “Resistant” (expression cluster EC-m4); “Sensitive” (expression cluster EC-u1); “Sensitive” (expression cluster EC-u2). Moreover, the “Mean viability in the EC” value was 0.82 (expression cluster EC-m1); 0.81 (expression cluster EC-m3); 0.81 (expression cluster EC-m4); 0.68 (expression cluster EC-u1); 0.50 (expression cluster EC-u2).
Take `O=C(CCCCCCC(=O)Nc1ccccc1)NO` [vorinostat]: the “Drug response associated with the EC” value (expression cluster EC-m3) was “Sensitive”.
Turning to `O=c1cc(N2CCOCC2)oc2c(-c3cccc4c3sc3ccccc34)cccc12` [NU7441], the “Drug response associated with the EC” value runs as follows: (expression cluster EC-m4) “Resistant”; (expression cluster EC-u2) “Sensitive”.
As to `Cl.NC(=O)c1cnc(N[C@@H]2CCCC[C@@H]2N)nc1Nc1cccc(-n2nccn2)c1` [PRT062607 HCl], the “Drug response associated with the EC” value by setting is: (expression cluster EC-i) “Resistant”; (expression cluster EC-m3) “Resistant”; (expression cluster EC-m4) “Resistant”; (expression cluster EC-u1) “Sensitive”; (expression cluster EC-u2) “Sensitive”.
As to `C[C@H](Nc1ncnc2[nH]cnc12)c1cc2cccc(Cl)c2c(=O)n1-c1ccccc1` [duvelisib], the “Mean viability in the other ECs” value is 0.88 (all ECs other than EC-m3), 0.87 (all ECs other than EC-m4), 0.90 (all ECs other than EC-u1) and 0.89 (all ECs other than EC-u2). The “Drug response associated with the EC” value is “Resistant” (expression cluster EC-m3), “Resistant” (expression cluster EC-m4), “Sensitive” (expression cluster EC-u1) and “Sensitive” (expression cluster EC-u2). Further, the “Mean viability in the EC” value reads like this: (expression cluster EC-m3) 0.95; (expression cluster EC-m4) 0.94; (expression cluster EC-u1) 0.85; (expression cluster EC-u2) 0.73.
Consider `C=C(C)[C@H]1Cc2c(ccc3c2O[C@@H]2COc4cc(OC)c(OC)cc4[C@@H]2C3=O)O1` [rotenone], for which the “Mean viability in the other ECs” value is, setting by setting: (all ECs other than EC-i) 0.77; (all ECs other than EC-m4) 0.77; (all ECs other than EC-u2) 0.74. Besides, the “Drug response associated with the EC” value by setting is: (expression cluster EC-i) “Sensitive”; (expression cluster EC-m4) “Sensitive”; (expression cluster EC-u2) “Resistant”. Also, the “Mean viability in the EC” value is, setting by setting: (expression cluster EC-i) 0.63; (expression cluster EC-m4) 0.67; (expression cluster EC-u2) 0.92.
In the case of `CC(C)(C)c1ccc(S(=O)(=O)/C=C/C#N)cc1` [BAY 11-7085], the “Drug response associated with the EC” value (expression cluster EC-i) is on record as “Resistant” and the “Drug response associated with the EC” value (expression cluster EC-u1) is listed as “Sensitive”.
